Results published in patent US20260108546A1 (ELI LILLY AND COMPANY, priority 2024, published 2026).

Molecular target: T1, hGIP-R (Homo sapiens, UniProt P48546)
T1 construct: expressed in transfected cells; host or cells: HEK-293 clonal cell lines
T1 sequence (P48546 22-466): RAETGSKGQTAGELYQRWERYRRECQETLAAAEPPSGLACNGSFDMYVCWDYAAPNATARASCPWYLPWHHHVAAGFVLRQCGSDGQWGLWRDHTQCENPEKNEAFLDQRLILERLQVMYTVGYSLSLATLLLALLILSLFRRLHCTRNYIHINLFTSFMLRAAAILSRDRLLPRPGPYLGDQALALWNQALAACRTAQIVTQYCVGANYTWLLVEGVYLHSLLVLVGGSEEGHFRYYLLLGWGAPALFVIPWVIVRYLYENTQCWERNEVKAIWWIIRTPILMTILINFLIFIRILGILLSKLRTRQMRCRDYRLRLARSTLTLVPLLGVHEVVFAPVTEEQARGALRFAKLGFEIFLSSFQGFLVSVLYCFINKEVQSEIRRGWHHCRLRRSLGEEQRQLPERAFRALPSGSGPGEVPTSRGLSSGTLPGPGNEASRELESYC
Assay: Functional hGIP-R Assay (cAMP formation, HTRF)
Assay type: cell-based
Details: for Emax: cAMP efficacy, percent of maximal response to GIP(1-42)OH, 37° C., 0.1% bovine casein, arithmetic mean ± SEM; for EC50: cAMP potency, HEK-293 cells expressing hGIP-R, incubated at 37° C. in the presence of 0.1% bovine casein, geometric mean, read-out: Human GIP-R EC50, nM (SEM, n)
Protocol: Functional activity was determined using CAMP formation in HEK-293 clonal cell lines expressing hGIP-R. hGIP-R receptor expressing cells were treated with compound (20 point concentration-response curve in DMSO, 2-fold Labcyte Echo direct dilution, 384 well plate Corning Cat #3570) in DMEM (Gibco Cat #31053) supplemented with 1× GlutaMAX™ (Gibco Cat #35050), 0.1% bovine casein (Sigma C4765-10ML), 250 μM IBMX (3-Isobutyl-1-methylxanthine, Acros Cat #228420010) and 20 mM HEPES (Gibco Cat #15630) in a 20 μL assay volume (final DMSO concentration was 1%). After a 30 min incubation at 37° C., the resulting increase in intracellular cAMP was quantitatively determined using the Revvity CAMP Dynamic 2 HTRF Assay Kit (62AM4PEJ). Briefly, cAMP levels within the cell were detected by adding the cAMP-d2 conjugate in cell lysis buffer (10 μL) followed by the antibody anti-cAMP-Eu^3+-Cryptate, also in cell lysis buffer (10 μL). The resulting competitive assay was incubated for at least 60 min at RT, then detected using a BMG Labtech PHERAstar FSX instrument with excitation at 320 nm and emission at 665 nm and 620 nm. PHERAstar units (emission at 665 nm/620 nm*10,000) are inversely proportional to the amount of cAMP present and were converted to nM cAMP per well using a CAMP standard curve. The amount of cAMP generated (nM) in each well was converted to a percent of the maximal response observed with human GIP (1-42) OH. A relative EC50 value and percent top (Emax) were derived by non-linear regression analysis using the percent maximal response vs. the concentration of compound added, fitted to a four-parameter logistic equation.

| Structure (SMILES) | Emax | EC50 |
| --- | --- | --- |
| Cn1cc(C[C@@H](NC(=O)[C@H]2C[C@@H]2c2ccc(-c3cnc4nn(C)cc4c3)cc2)C(=O)NC(C)(C)Cn2nc(C(F)(F)F)cc2-n2ccccc2=O)cn1 [Example 20, (1S,2S)-N-((R)-1-((2-Methyl-1-(5-(2-oxopyridin-1(2H)-yl)-3-(trifluoromethyl)-1H-pyrazol-1-yl)propan-2-yl)amino)-3-(1-methyl-1H-pyrazol-4-yl)-1-oxopropan-2-yl)-2-(4-(2-methyl-2H-pyrazolo[3,4-b]pyridin-5-yl)phenyl) cyclopropane-1-carboxamide] | 126 ± 2.39% | 79.7 nM |
| Cn1cc(C[C@@H](NC(=O)[C@H]2C[C@@H]2c2ccc(-c3cnc4nn(C)cc4c3)cc2)C(=O)NC(C)(C)Cn2nc(C(F)(F)F)cc2C2CC2)cn1 [Example 21, (1S,2S)-N-((R)-1-((1-(5-Cyclopropyl-3-(trifluoromethyl)-1H-pyrazol-1-yl)-2-methylpropan-2-yl)amino)-3-(1-methyl-1H-pyrazol-4-yl)-1-oxopropan-2-yl)-2-(4-(2-methyl-2H-pyrazolo [3,4-b]pyridin-5-yl)phenyl) cyclopropane-1-carboxamide] | 102 ± 1.71% | 63.4 nM |
| Cn1cc(C[C@@H](NC(=O)[C@H]2C[C@@H]2c2ccc(-c3cnc4nc(C(F)(F)F)cn4c3)cc2)C(=O)NC(C)(C)Cn2nc(C(F)(F)F)cc2-c2nnc[nH]2)cn1 [Example 25, (1S,2S)-N-((R)-1-((1-(5-(4H-1,2,4-Triazol-3-yl)-3-(trifluoromethyl)-1H-pyrazol-1-yl)-2-methylpropan-2-yl)amino)-3-(1-methyl-1H-pyrazol-4-yl)-1-oxopropan-2-yl)-2-(4-(2-(trifluoromethyl)imidazo [1,2-a]pyrimidin-6-yl)phenyl) cyclopropane-1-carboxamide] | 142 ± 17.3% | 82.7 nM |
| Cn1cc(C[C@@H](NC(=O)[C@H]2C[C@@H]2c2ccc(-c3cnc4nccn4c3)cc2)C(=O)NC(C)(C)Cn2nc(C(F)(F)F)cc2-c2cn[nH]n2)cn1 [Example 27, (1S,2S)-N-((R)-1-((1-(5-(2H-1,2,3-Triazol-4-yl)-3-(trifluoromethyl)-1H-pyrazol-1-yl)-2-methylpropan-2-yl)amino)-3-(1-methyl-1H-pyrazol-4-yl)-1-oxopropan-2-yl)-2-(4-(imidazo[1,2-a]pyrimidin-6-yl)phenyl) cyclopropane-1-carboxamide] | 99.3% | 61.6 nM |
| CN(C(=O)[C@H]1C[C@@H]1c1ccc(-c2cnc3nn(C)cc3c2)cc1)[C@H](Cc1cnn(C)c1)C(=O)NC(C)(C)Cn1nc(C(F)(F)F)cc1-c1n[nH]c(=O)s1 [Example 30, (1S,2S)-N-Methyl-N-((R)-1-((2-methyl-1-(5-(5-oxo-4,5-dihydro-1,3,4-thiadiazol-2-yl)-3-(trifluoromethyl)-1H-pyrazol-1-yl)propan-2-yl)amino)-3-(1-methyl-1H-pyrazol-4-yl)-1-oxopropan-2-yl)-2-(4-(2-methyl-2H-pyrazolo[3,4-b]pyridin-5-yl)phenyl) cyclopropane-1-carboxamide] | 95.2 ± 0.936% | 198 nM |
| CN(C(=O)[C@H]1C[C@@H]1c1ccc(-c2cnc3nn(C)cc3c2)cc1)[C@H](Cc1cnn(C)c1)C(=O)NC(C)(C)Cn1nc(C(F)(F)F)cc1-c1ccc(=O)n(C)c1 [Example 31, (1S,2S)-N-Methyl-N-((R)-1-((2-methyl-1-(5-(1-methyl-6-oxo-1,6-dihydropyridin-3-yl)-3-(trifluoromethyl)-1H-pyrazol-1-yl)propan-2-yl)amino)-3-(1-methyl-1H-pyrazol-4-yl)-1-oxopropan-2-yl)-2-(4-(2-methyl-2H-pyrazolo[3,4-b]pyridin-5-yl)phenyl) cyclopropane-1-carboxamide] | 117 ± 4.92% | 152 nM |
| CN(C(=O)[C@H]1C[C@@H]1c1ccc(-c2cnc3nn(C)cc3c2)cc1)[C@H](Cc1cnn(C)c1)C(=O)NC(C)(C)Cn1nc(C(F)(F)F)cc1-c1ccc[nH]c1=O [Example 32, (1S,2S)-N-Methyl-N-((R)-1-((2-methyl-1-(5-(2-oxo-1,2-dihydropyridin-3-yl)-3-(trifluoromethyl)-1H-pyrazol-1-yl)propan-2-yl)amino)-3-(1-methyl-1H-pyrazol-4-yl)-1-oxopropan-2-yl)-2-(4-(2-methyl-2H-pyrazolo[3,4-b]pyridin-5-yl)phenyl) cyclopropane-1-carboxamide] | 119% | 93.5 nM |
| CN(C(=O)[C@H]1C[C@@H]1c1ccc(-c2cnc3nn(C)cc3c2)cc1)[C@H](Cc1cnn(C)c1)C(=O)NC(C)(C)Cn1nc(C(F)(F)F)cc1-c1cccc(=O)[nH]1 [Example 33, (1S,2S)-N-Methyl-N-((R)-1-((2-methyl-1-(5-(6-oxo-1,6-dihydropyridin-2-yl)-3-(trifluoromethyl)-1H-pyrazol-1-yl)propan-2-yl)amino)-3-(1-methyl-1H-pyrazol-4-yl)-1-oxopropan-2-yl)-2-(4-(2-methyl-2H-pyrazolo[3,4-b]pyridin-5-yl)phenyl) cyclopropane-1-carboxamide] | 108% | 133 nM |

The remaining lines, values ahead:

| Emax | EC50 | Structure (SMILES) |
| --- | --- | --- |
| 109 ± 11.6% | 61.3 nM | Cn1cc(C[C@@H](NC(=O)[C@H]2C[C@@H]2c2ccc(-c3cnc4nn(C)cc4c3)nc2C(F)(F)F)C(=O)NC(C)(C)Cn2cc(C(F)(F)F)cn2)cn1 [Example 22, (1S,2S)-N-((R)-1-((2-Methyl-1-(4-(trifluoromethyl)-1H-pyrazol-1-yl)propan-2-yl)amino)-3-(1-methyl-1H-pyrazol-4-yl)-1-oxopropan-2-yl)-2-(6-(2-methyl-2H-pyrazolo[3,4-b]pyridin-5-yl)-2-(trifluoromethyl)pyridin-3-yl)cyclopropane-1-carboxamide] |
| 111 ± 11.6% | 44.4 nM | Cn1cc(C[C@@H](NC(=O)[C@H]2C[C@@H]2c2ccc(-c3cnc4nc(C(F)(F)F)cn4c3)cc2)C(=O)NC(C)(C)Cn2nc(C(F)(F)F)cc2-n2ccnn2)cn1 [Example 23, (1S,2S)-N-((R)-1-((1-(5-(1H-1,2,3-Triazol-1-yl)-3-(trifluoromethyl)-1H-pyrazol-1-yl)-2-methylpropan-2-yl)amino)-3-(1-methyl-1H-pyrazol-4-yl)-1-oxopropan-2-yl)-2-(4-(2-(trifluoromethyl)imidazo [1,2-a]pyrimidin-6-yl)phenyl) cyclopropane-1-carboxamide] |
| 133 ± 0.579% | 15.8 nM | COC(=O)c1cc(C(F)(F)F)nn1CC(C)(C)NC(=O)[C@@H](Cc1cnn(C)c1)NC(=O)[C@H]1C[C@@H]1c1ccc(-c2cnc3nc(C(F)(F)F)cn3c2)cc1 [Example 24, Methyl 1-(2-methyl-2-((R)-3-(1-methyl-1H-pyrazol-4-yl)-2-((15,2S)-2-(4-(2-(trifluoromethyl)imidazo [1,2-a]pyrimidin-6-yl)phenyl)cyclopropane-1-carboxamido)propanamido)propyl)-3-(trifluoromethyl)-1H-pyrazole-5-carboxylate] |
| 132 ± 15.5% | 17.4 nM | Cn1cc(C[C@@H](NC(=O)[C@H]2C[C@@H]2c2ccc(-c3cnc4nc(C(F)(F)F)cn4c3)cc2)C(=O)NC(C)(C)Cn2nc(C(F)(F)F)cc2-c2cn[nH]n2)cn1 [Example 26, (1S,2S)-N-((R)-1-((1-(5-(2H-1,2,3-Triazol-4-yl)-3-(trifluoromethyl)-1H-pyrazol-1-yl)-2-methylpropan-2-yl)amino)-3-(1-methyl-1H-pyrazol-4-yl)-1-oxopropan-2-yl)-2-(4-(2-(trifluoromethyl)imidazo [1,2-a]pyrimidin-6-yl)phenyl) cyclopropane-1-carboxamide] |
| 91.9 ± 0.597% | 20.5 nM | Cn1cc(C[C@@H](NC(=O)[C@H]2C[C@@H]2c2ccc(-c3cnc4nccn4c3)cc2)C(=O)NC(C)(C)Cn2nc(C(F)(F)F)cc2-c2cnn(C)c2)cn1 [Example 28, (1S,2S)-2-(4-(Imidazo[1,2-a]pyrimidin-6-yl)phenyl)-N-((R)-1-((2-methyl-1-(1′-methyl-5-(trifluoromethyl)-1′H,2H-[3,4′-bipyrazol]-2-yl)propan-2-yl)amino)-3-(1-methyl-1H-pyrazol-4-yl)-1-oxopropan-2-yl)cyclopropane-1-carboxamide] |
